Reference: patent US20180228811A1, “GDNF INDUCTION FOR THE TREATMENT OF RETINAL DISORDERS” (THE SCHEPENS EYE RESEARCH INSTITUTE, INC., priority 2014, published 2018)
Values joined by “and” are separate entries in the source; they are usually repeats but may differ in a detail not shown here. Identical values can stand only once. “Also recorded” adds a separate entry of the source.

Tests used:
photoreceptors = test: Photoreceptor rescue by Compound I suspension in rhodopsin knockout mice (H&E cell count); format: in vivo, mouse; settings: rho-/- mice
Experimental: To study photoreceptor rescue by Compound I suspension (60 mg/ml), 2 ul of suspension (n=5) or Vehicle (n=5) were administered intravitreally to 4-week old rhodopsin knockout mice using a beveled glass needle, connected to a Hamilton syringe through polyethylene tubing. During the injection, corneal paracenthesis was performed to reduce intraocular pressure. 10 weeks after the injection, eyes were enucleated and fixed in Davidson solution for histological processing: paraffin embedding and sectioning. Six micron thick sections were cut in the area close to optic nerve head (ONH) and stained with hematoxylin-eosin (H&E) or processed for immunohistochemical analysis (IHC). H&E-stained sections were imaged (Olympus imaging system DP72) and total photoreceptor number was estimated based on the nuclei count in the outer nuclear layer (ONL). Cells were counted in each 100 um retina span starting from optic nerve head on three sections for each eye (five eyes per group). Total photoreceptor number per section was also calculated.

GDNF [1] = test: GDNF protein induction in ARPE19 cells (ELISA); format: cell-based, human
Experimental: (§1) GDNF induction […] was assessed using three retinal-specific cell systems: ARPE19, as a model for human retinal pigment epithelium; human retinal progenitor cells (hRPC), as a substitute for human retinal neurons/glia; and mouse eyecups, differentiated from induced pluripotent stem cells. ARPE19 cells are described in Dunn et al., Exp. Eye Res. 62: 155-169, 1996. To study GDNF induction in a human retinal pigment epithelium cell line, ARPE19, thawed ARPE19 cells (passage 33, ATCC) were plated on fibronectin (Akron)-coated plates (Nunc) in stimulation medium at a density of 10 k cells/sq.cm. The flasks were incubated at standard conditions: 37° C., 5% CO2, 100% humidity. Cells were plated 24 hours prior to Compound I treatment and were grown in Ultraculture medium (Lonza), supplemented with 1×MEM NEAA (Gibco), 1× L-glutamine (Gibco), 1× Antibiotic/antimycotic (Gibco), 2 ng/ml bFGF (Peprotech), 1 ng/ml EGF (Peprotech). For qPCR analysis, the experiments were performed in 35 mm Petri dishes in 2 ml of medium with Compound I concentration of 100 nM (DMSO-based solution). Total mRNA was isolated at 0, 15, 30, 60, 120, 240 minutes post stimulation. For protein expression determination by ELISA, the experiments were performed in 96 well plates in 100 ul of medium with each condition (concentrations ranging from 0 to 10 uM) reproduced in 3 wells. For ELISA analysis, plates were removed from out of incubator 24 hours post stimulation and freeze-thawed followed by CHAPS lysis buffer treatment for total […] extraction. The ELISA analysis for GDNF was performed using GDNF DuoSet kit (R&D systems) using manufacturer's instructions.

GDNF [2] = test: GDNF induction in human retinal progenitor cells (hRPC) (ELISA); format: cell-based
Experimental: as §1
Experiments with human retinal progenitor cell line (hRPC) were performed in a similar manner (Baranov et al., Tissue Eng Part A 20, 140124133442001-1475 (2014)): hRPC were thawed and plated (passage 15) in 96 well plates using the same conditions and density as described above for ARPE19. The cell treatment, sample collection and readout were performed using the same protocol. […]

[3] = Pharmacokinetic studies of Compound I sustained release formulation (suspension) in wild-type mice; format: in vivo, mouse; settings: for Compound I content in the collected vitreoretinal samples / Compound I concentration in the vitreoretinal sample: 2 ul of 60 mg/ml suspension intravitreally; for total Compound I content per eye: suspension intravitreally
Experimental: To profile pharmacokinetics of Compound I after single intravitreal injection, 2 ul of Compound I suspension (60 mg/ml) were administered intravitreally to 3 week old wild-type (C57/Bl6) mice in the same way as described above for the solution. A beveled glass needle connected to a Hamilton syringe through polyethylene tubing was used. During the injection, corneal paracenthesis was performed to reduce intraocular pressure.
For enucleation animals were euthanized at several timepoints after injection: 1 hour (n=5), 1 day (n=3), 2 days (n=3), 7 days (n=3) and 14 days (n=3). The eyes were enucleated and placed in chilled phosphate-buffered saline and kept on ice. The eyes were dissected within 30 minutes post-enucleation: total retina and vitreous were collected into pre-weighed tubes, weighted and snap frozen. For Compound I content in the eye analysis retina and vitreous humor samples were diluted in 0.1% formic acid in 90:10 (v:v) acetonitrile:water before being analyzed for Compound I using an analytical method based on protein precipitation, followed by HPLC/MS/MS analysis. Using a 25 μL aliquot of sample, the lower limit of quantification (LLQ) for Compound I was 1.00 ng/mL. The computer systems that were used on this study to acquire and quantify data included Analyst Version 1.6.1 and SMS2000 version 2.3. The results were analyzed by ANOVA (p<0.05).

[4] = wt mice, 14 days post injection

In the case of `COc1cc2c(cc1S(=O)(=O)c1ccc(OCc3ccc(Cl)cc3)cc1)CCN(C)CC2` [Compound I, 7-[4-(4-chloro-benzyloxy)-benzenesulfonyl]-8-methoxy-3-methyl-2,3,4,5-tetrahydro-1H-3-benzazepine], the “increase in photoreceptor cell number pan-retinally compared to uninjected and vehicle” value (photoreceptors; 2 ul of 60 mg/ml suspension intravitreally at 4 weeks of age, 10 weeks after injection) is reported as 2 fold and 2.1 fold, the “total photoreceptor cells per section” value (photoreceptors; suspension, 10 weeks after injection, uninjected 516, vehicle 508) is reported as 1210 cells per section and the “retinal pigment epithelium, inner nuclear and ganglion cell layers, histology” value (photoreceptors; suspension, 10 weeks after the treatment) is reported as “no changes in the retinal pigment epithelium, inner nuclear or ganglion cell layers”. The “increase in photoreceptor cell number in the area close to the optic nerve head (ONH)” value (photoreceptors; suspension, 200 micron area) was 1.5 fold, the “outer nuclear layer (ONL), histology” value (photoreceptors; suspension, compared to vehicle-treated and untreated eyes) was “preserved; also recorded: significant increase in ONL thickness” and the “photoreceptors per 200 um close to the ONH” value (photoreceptors; suspension, non-treated 46, vehicle control 39) was 63 photoreceptors per 200 um. The GDNF induction (GDNF [1]; ARPE19) was “More than 2 fold”, the “GDNF induction, result in words” value (GDNF [1]; ARPE19, 0 to 10 uM) was “Significant dose-dependent GDNF induction” and the “concentration of Compound I at which GDNF was upregulated” value (GDNF [1]; ARPE19, ELISA, FIG. 1C) was 3 µM. The “increase of GDNF protein levels in vitro” value (GDNF [1]; in vitro, cell system not stated (mRNA was measured in ARPE19 only)) was 1.8 fold, the GDNF induction (GDNF [2]) was “More than 2 fold” and the “GDNF induction, result in words” value (GDNF [2]; 0 to 10 uM) was “Significant dose-dependent GDNF induction”. The “concentration of Compound I at which GDNF was upregulated” value (GDNF [2]; ELISA, FIG. 1B) was 1 µM, the “time drug may be present according to modeling” value ([3]; single 2 ul intravitreal injection of suspension, modeling) was “up to 4 weeks” and the “Compound I content in the collected vitreoretinal samples” value ([3]; wt mice, 1 hour post-injection) was 21 ug per milligram of tissue. For the same compound, the “Compound I concentration in the vitreoretinal sample” value ([3]; wt mice, 14 days) was 5 mg/g tissue, the “Compound I content in the collected vitreoretinal samples” value [3, 4] was 5 ug per milligram of tissue and the “Compound I concentration in the vitreoretinal sample” value ([3]; wt mice, start of time course (1 hour)) was 20 mg/g tissue. The “time the compound remained in the eye after single intravitreal injection” value ([3]; wt mice, single 2 ul injection of suspension) was “at least 2 weeks”, the “total Compound I content per eye” value ([3]; wt mice, 1 hour post-injection) was 80 µg and the “total Compound I content per eye” value [3, 4] was 28 µg.
